Experimental data from ChEMBL document CHEMBL1129119, “N-Benzylated benzimidazol-2-one derivatives: activators of large-conductance Ca2+-dependent K+ channels” (1996).

Assay: Tested for maxi-K channel opening property using two -electrode voltage clamp recording from Xenopus laevis oocytes at 20 uM
Format: functional, frog, Oocyte

| Compound | Control current |
| --- | --- |
| O=c1[nH]c2cc(C(F)(F)F)ccc2n1Cc1cc(Cl)ccc1O | 133.4% |
| O=[N+]([O-])c1ccc2c(c1)nc(O)n2Cc1cc(Cl)ccc1O | 163.1% |
| Cc1ccc2c(c1)nc(O)n2Cc1cc(Cl)ccc1O | 101.9% |
| Oc1ccc(Cl)cc1Cn1c(O)nc2ccncc21 | 100.8% |
| Oc1ccc(Cl)cc1Cn1c(O)nc2cc(F)ccc21 | 105.9% |
| COc1ccc(Cl)cc1Cn1c(O)nc2ccccc21 | 104.2% |
| Oc1ccc(Cl)cc1Cn1c(O)nc2cc(I)ccc21 | 120.2% |
| Oc1ccc(Cl)cc1Cn1c(O)nc2ccc(Cl)cc21 | 116.3% |
| Oc1ccc(Cl)cc1Cn1c(O)nc2ccccc21 | 110.9% |
| Oc1ccc(Cl)cc1Cn1c(O)nc2cnccc21 | 107.2% |
| O=c1[nH]c2cc(C(F)(F)F)ccc2n1-c1cc(Cl)ccc1O | 131.8% |
| Oc1ccc2c(c1)nc(O)n2Cc1cc(Cl)ccc1O | 106% |
| Oc1ccc(Cl)cc1Cn1c(O)nc2ccc(Br)cc21 | 107.9% |
| Oc1ccc(Cl)cc1Cn1c(O)nc2cc(Cl)cc(Cl)c21 | 118.3% |
| Oc1ccc(Cl)cc1Cn1c(O)nc2cc(Cl)c(Cl)cc21 | 145.8% |
| Oc1ccc(Cl)cc1Cn1c(O)nc2cc(Br)ccc21 | 135.7% |
| Oc1ccc(Cl)cc1Cn1c(O)nc2cc(Cl)ccc21 | 150.1% |
| Oc1ccccc1Cn1c(O)nc2cc(C(F)(F)F)ccc21 | 126% |
| Oc1ccccc1CCn1c(O)nc2cc(C(F)(F)F)ccc21 | 119.5% |
